Columns and labels:
mEAG1 channel = molecular target: T1, mEAG1 channel (Mus musculus, UniProt Q60603); assay: Inside-out patch-clamp of wild-type mEAG1 channels expressed in Xenopus oocytes; format: cell-based; conditions: 50 µM
T1 sequence (Q60603 1-989): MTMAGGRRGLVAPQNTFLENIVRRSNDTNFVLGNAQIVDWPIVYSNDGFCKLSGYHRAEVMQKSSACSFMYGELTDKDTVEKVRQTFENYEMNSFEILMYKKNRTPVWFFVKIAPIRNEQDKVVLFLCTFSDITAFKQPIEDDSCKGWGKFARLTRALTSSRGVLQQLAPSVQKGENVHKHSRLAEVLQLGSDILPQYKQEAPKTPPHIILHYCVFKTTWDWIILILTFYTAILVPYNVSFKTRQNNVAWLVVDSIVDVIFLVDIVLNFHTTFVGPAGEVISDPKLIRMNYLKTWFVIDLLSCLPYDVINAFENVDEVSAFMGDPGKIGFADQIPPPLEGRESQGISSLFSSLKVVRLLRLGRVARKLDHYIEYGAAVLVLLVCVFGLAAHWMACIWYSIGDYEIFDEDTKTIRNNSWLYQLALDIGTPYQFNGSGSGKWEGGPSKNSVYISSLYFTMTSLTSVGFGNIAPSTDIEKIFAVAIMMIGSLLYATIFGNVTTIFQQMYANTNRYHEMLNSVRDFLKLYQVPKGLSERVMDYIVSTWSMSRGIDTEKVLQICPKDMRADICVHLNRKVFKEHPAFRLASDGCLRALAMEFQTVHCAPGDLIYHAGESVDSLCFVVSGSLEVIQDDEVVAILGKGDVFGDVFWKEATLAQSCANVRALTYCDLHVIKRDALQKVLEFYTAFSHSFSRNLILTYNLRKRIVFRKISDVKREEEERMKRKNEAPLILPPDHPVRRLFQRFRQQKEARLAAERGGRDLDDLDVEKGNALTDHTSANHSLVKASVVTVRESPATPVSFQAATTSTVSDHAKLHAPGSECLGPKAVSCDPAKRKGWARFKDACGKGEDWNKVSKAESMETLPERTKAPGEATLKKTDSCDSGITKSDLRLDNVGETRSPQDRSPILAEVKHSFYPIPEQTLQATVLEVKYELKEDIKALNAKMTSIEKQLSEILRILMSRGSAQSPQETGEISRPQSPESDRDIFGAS

[1] = Solubility limit in recording / aqueous solutions; format: physicochemical; conditions: aqueous solutions
[2] = molecular target: T2, purified C-linker/CNBHD of mEAG1 channels (Mus musculus, UniProt Q60603); assay: Tryptophan-to-flavonoid FRET binding assay; conditions: 100 µM flavonoid; 4 µM protein
T2 sequence (Q60603 505-702): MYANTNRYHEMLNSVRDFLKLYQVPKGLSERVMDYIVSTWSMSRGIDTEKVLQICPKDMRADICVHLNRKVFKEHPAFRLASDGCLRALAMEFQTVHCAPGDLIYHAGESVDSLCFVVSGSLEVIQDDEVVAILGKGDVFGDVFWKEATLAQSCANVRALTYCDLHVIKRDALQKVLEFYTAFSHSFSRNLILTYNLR

| SMILES | effect on steady-state or kinetic properties of mEAG1 channel gating (mEAG1 channel) | solubility [1] [µM] | decrease of peak fluorescence intensity of the C-linker/CNBHD at 341 nm [2] [%] |
| --- | --- | --- | --- |
| COc1ccc(-c2cc(=O)c3c(O)cc(O)cc3o2)cc1 [Acacetin, 5,7-dihydroxy-2-(4-methoxyphenyl)chromen-4-one] | did not alter | – | – |
| Oc1cc(O)c2c(c1)O[C@H](c1ccc(O)c(O)c1)[C@@H](O)C2 [Catechin, (2R,3S)-2-(3,4-dihydroxyphenyl)-3,4-dihydro-2H-chromene-3,5,7-triol] | did not alter | – | – |
| O=c1c(O)c(-c2ccc(O)c(O)c2)oc2cc(O)cc(O)c12 [Quercetin, 2-(3,4-dihydroxyphenyl)-3,5,7-trihydroxy-4H-chromen-4-one] | – | ≤ 150 | 51 |
| C[C@]12CC[C@@H]3c4ccc(O)cc4CC[C@H]3[C@@H]1CC[C@@H]2O [Estradiol, (17β)-estra-1,3,5(10)-triene-3,17-diol] | did not shift the voltage dependence or slow the deactivation | – | – |
